Laboratory results published in patent US20240374585A1, “EPITHELIAL SODIUM CHANNEL (ENAC) INHIBITOR CONJUGATES AND METHODS FOR USE THEREOF” (Lung Therapeutics, Inc., priority 2021, published 2024).
pIC50: −log10 of the molar value. Where a SMILES comes first, the peptide text is derived from it. Where no end group is shown, it is not given here. [ ]: non-standard residue; d: D form. Aib = CC(C)(N)C(=O)O

Key:
[1] = tested on: sheep model of cystic fibrosis; assay: Tracheal mucous velocity (TMV) in sheep model of cystic fibrosis; assay type: in vivo
Protocol: The conjugates of the present invention were tested for their ability to increase lung mucociliary clearance in a sheep model of cystic fibrosis.
The peptide conjugates of the present invention were tested in vivo using a sheep model of cystic fibrosis as described in Scott et al., Am J. Resp. Crit. Care Med., 2017; 196 (6): 734-744; and Sabater et al., PLOS ONE, 2019; 14 (11): e0224764, hereby incorporated by reference in their entirety.
Briefly, tracheal mucous velocity (TMV) was determined in sheep by insufflation of radio-opaque Teflon disks into the trachea and measuring the movement of the disks over a 1 minute period by scintigraphy.
Intubated sheep were treated with the CFTR inhibitor INH-172 by nebulization, which caused a reduction in the mucus transport rate in the trachea. Once a baseline inhibited TMV was obtained at 4 hours following CFTR inhibition, then ENaC inhibitor conjugate (Conj. 13) or control was nebulized into the sheep lung and TMV measurements were repeated hourly.

neutrophil elastase = molecular target: T1, neutrophil elastase (Homo sapiens, UniProt P08246)
T1 sequence (P08246 30-267): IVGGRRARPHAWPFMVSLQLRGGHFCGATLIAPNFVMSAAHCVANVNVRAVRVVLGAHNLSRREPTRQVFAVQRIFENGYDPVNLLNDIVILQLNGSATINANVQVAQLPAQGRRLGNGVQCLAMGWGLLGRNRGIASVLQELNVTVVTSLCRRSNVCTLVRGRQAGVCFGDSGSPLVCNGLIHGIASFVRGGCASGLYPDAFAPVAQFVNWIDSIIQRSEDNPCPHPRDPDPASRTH
Protocol: Experiments were therefore performed to determine the stability of the conjugates to protease cleavage.
The conjugates of the invention were incubated in PBS or PBS and 0.1 mg neutrophil elastase for 60 minutes at 37° C. The conjugates were then run on HPLC to determine their stability against protease cleavage.

ENaC = molecular target: T2, ENaC (Homo sapiens, UniProt P37088+P51168+P51170); assay: ENaC inhibition in NHBE cell monolayers, Ussing epithelial voltage clamp (short circuit current); assay type: cell-based; conditions: NHBE cell monolayers, Ussing chamber, apical addition, 35±2° C.; read-out: IC50 for the ENaC inhibition
T2 construct: Primary NHBE cells were isolated from bronchi of normal healthy patients; endogenous in cells; host or cells: primary normal human bronchial epithelial (NHBE) cells, differentiated at air-liquid interface
T2 sequence (P37088 1-669): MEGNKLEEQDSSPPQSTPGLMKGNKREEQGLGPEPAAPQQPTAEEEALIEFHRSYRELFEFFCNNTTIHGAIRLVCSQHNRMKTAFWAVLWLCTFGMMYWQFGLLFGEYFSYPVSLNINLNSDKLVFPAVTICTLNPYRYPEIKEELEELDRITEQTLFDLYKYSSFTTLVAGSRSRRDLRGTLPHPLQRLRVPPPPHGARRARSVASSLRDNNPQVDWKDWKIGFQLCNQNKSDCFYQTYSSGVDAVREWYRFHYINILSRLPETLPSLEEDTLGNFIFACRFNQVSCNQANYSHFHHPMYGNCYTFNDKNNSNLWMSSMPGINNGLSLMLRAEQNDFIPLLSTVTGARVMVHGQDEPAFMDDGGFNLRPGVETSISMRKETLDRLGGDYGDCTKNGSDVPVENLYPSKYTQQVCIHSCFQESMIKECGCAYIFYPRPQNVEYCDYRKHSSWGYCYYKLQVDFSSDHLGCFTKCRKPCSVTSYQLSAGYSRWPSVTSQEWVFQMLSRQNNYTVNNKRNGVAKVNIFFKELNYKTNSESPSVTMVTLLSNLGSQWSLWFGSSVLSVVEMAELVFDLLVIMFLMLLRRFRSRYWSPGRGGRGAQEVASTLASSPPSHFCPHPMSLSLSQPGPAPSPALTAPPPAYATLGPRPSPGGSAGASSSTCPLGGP
T2 sequence (P51168 1-640): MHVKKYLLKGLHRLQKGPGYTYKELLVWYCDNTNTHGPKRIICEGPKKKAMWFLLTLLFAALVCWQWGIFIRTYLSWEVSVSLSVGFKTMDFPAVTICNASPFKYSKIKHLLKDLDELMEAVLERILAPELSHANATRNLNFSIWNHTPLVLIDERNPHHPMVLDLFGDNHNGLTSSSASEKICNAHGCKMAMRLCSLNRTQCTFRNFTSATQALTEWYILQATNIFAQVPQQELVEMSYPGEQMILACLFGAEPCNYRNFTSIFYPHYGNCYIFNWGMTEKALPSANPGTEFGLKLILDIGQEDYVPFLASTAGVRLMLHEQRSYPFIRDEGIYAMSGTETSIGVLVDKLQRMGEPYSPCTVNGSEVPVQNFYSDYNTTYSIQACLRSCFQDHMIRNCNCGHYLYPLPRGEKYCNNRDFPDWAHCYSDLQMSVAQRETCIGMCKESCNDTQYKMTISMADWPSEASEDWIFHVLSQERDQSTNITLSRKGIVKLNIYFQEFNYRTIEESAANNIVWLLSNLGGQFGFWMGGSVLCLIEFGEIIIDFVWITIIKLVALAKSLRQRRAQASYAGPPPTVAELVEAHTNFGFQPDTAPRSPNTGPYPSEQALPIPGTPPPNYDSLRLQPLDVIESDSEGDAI
T2 sequence (P51170 1-649): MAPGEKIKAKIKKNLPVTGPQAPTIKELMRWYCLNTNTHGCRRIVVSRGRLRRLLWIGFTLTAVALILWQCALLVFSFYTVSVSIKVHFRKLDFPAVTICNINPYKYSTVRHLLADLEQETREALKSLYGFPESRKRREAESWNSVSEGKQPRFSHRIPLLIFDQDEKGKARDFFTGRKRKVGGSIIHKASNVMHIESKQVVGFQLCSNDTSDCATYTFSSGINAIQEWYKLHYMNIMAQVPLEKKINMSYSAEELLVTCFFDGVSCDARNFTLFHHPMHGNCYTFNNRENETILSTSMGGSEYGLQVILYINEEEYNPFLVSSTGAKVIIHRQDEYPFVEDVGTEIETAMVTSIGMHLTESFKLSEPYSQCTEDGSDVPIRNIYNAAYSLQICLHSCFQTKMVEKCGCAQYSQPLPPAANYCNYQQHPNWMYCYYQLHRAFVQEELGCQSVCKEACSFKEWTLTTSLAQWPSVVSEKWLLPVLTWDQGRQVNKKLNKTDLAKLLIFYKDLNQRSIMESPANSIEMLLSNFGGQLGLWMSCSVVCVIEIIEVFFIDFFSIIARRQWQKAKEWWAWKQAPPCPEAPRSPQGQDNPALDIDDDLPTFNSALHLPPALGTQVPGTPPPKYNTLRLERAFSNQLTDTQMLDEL
Protocol: The objective of this study was to measure the ability of the illustrative conjugates to modulate ion transport function of ENAC in normal human bronchial epithelial (NHBE) cell monolayers. Sodium transport function of ENAC expressed in NHBE monolayers was evaluated using an Ussing epithelial voltage clamp apparatus. See, Hirsh et al., J. Pharmacol. Exp. Ther. 2008; 325:77-88, hereby incorporated by reference in its entirety.
Primary NHBE cells were isolated from bronchi of normal healthy patients, expanded in Lonza media (BEGM™ BulletKit™), and plated on Snapwell™ filters to form an epithelium. Cells on Snapwell™ inserts were grown for at least 21 days in Vertex Differentiation media and exposed to an air-liquid interface to promote differentiation. At least one day before the assay, mucous overlaying the apical surface was removed from the inserts by incubating the apical surface for about 30 minutes with ≥200 μL of differentiation media followed by aspiration of the mucous film and media.
The NHBE cell monolayers grown on Snapwell™ filter inserts were transferred to Physiologic Instruments Ussing recording chambers (Physiologic Instruments, Inc., San Diego, CA) and superfused with HB-PS. One or more 6-channel or 8-channel Physiologic Instruments VCC MC6 or VCC MC8 epithelial voltage clamps were used in combination to record short circuit current (ISC) from up to 24 inserts simultaneously. Air was used to operate the bubble lifts to rapidly circulate solutions in each Ussing chamber half and to aerate the monolayers.
Inserts were voltage clamped at 0 m V to record the ISC. Bumetanide (20 μM) was added to the basolateral side of all inserts. Test conjugates prepared as DMSO (Sigma-Aldrich) stocks were added cumulatively and sequentially to the apical Ussing chamber halves with at least 3 minutes between each addition.
Time and volume matched additions of DMSO to the basolateral side of the test conjugate treated inserts and both sides of the vehicle treated inserts was made to maintain osmotic balance across the epithelia. Transepithelial resistance was monitored with small voltage steps. The assay was performed at 35±2° C.
ENaC current at each test conjugate concentration was calculated as the peak current change produced by each test conjugate treated insert minus the mean current change produced by the corresponding DMSO additions to time-matched vehicle controls inserts. Cumulative difference data was fit to a Hill equation of the form: […]
Where IEnaC is the ISC peak difference current measured at each test conjugate concentration [Test].

Ac-(AmilCC1)-K-(Aib)-SHLRKLRKRLL-NH2 (K[Aib]SHLRKLRKRLL-NH2; not fully specified (N-terminus); printed as Ac-(AmilCC1)-K-(Aib)-SHLRKLRKRLL-NH2; also: amiloride click conjugate (AmilCC1) at residue 1) [Conjugate 13]
fold better than SPX-101 at restoring TMV in vivo ([1]; 0.25 mg/kg vs SPX-101 2 mg/kg): approximately 8 fold | restoration of TMV ([1]; nebulized 0.125, 0.25 and 0.5 mg/kg after CFTR inhibitor INH-172, vs 0.9% saline, FIG. 5): dose-dependent restoration of TMV | dose needed to restore TMV ([1]; nebulized, sheep): 0.25 mg/kg | period over which restoration of TMV was sustained ([1]; nebulized, sheep, vs 0.9% saline): 8 h | susceptibility to cleavage by neutrophil elastase (neutrophil elastase): drastically reduced susceptibility to cleavage by neutrophil elastase

CC[C@H](C)[C@H](NC(=O)[C@H](Cc1ccc(O)cc1)NC(=O)[C@@H]1C[C@@H](O)CN1C(=O)[C@H](C)NC(=O)[C@H](CC(C)C)NC(=O)[C@H](C)NC(=O)CCCCCNC(=O)[C@H](CCCCNC(N)=NC(=O)c1nc(Cl)c(N)nc1N)NC(C)=O)C(N)=O [Conjugate 1, Ac-(AmilAC)K-(Ahx)-ALA(Hyp)YI-NH2] (HELM PEPTIDE1{[ac].[NC(=NC(=O)c1nc(Cl)c(N)nc1N)NCCCC[C@H](N[*:1])C(=O)[*:2]].[O=C(CCCCCN[*:1])[*:2]].A.L.A.[Hyp].Y.I.[am]}$$$$V2.0)
pIC50 (ENaC): 6.54
